Results published in PMC4298654, “In vivo formation of N-acyl-fumonisin B1” (Mycotoxin Research, 2014).

Assay: In vivo formation of NAFB1 and NAHFB1 in rat kidney and liver (HPLC-ESI-MS/MS)
Parameters: N-acyl-derivative in tissue sample, analysis a / N-acyl-derivative in tissue sample, analysis b / N-acyl-derivative in tissue sample, mean: unit not given here
Details: 5 days
Text: The study protocol was approved by the Institutional Animal Care and Use Committee, Richard B. Russell Agricultural Research Center, Athens, GA. Male Sprague–Dawley rats (Harlan Industries, Indianapolis, IN, USA), 7 weeks of age at receipt, were individually housed in stainless steel, wire mesh cages in an environmentally controlled room having a 12-h light/dark cycle. Food (2019 Global Rodent Diet, Teklad, Madison, WI, USA) and fresh tap water were provided ad libitum. After a 1 week acclimation period, the animals were randomly assigned to five groups (n = 2/group) having mean weights of 215 to 216 g (weight range of all animals, 211 to 220 g). For five consecutive days, they were observed, weighed, and given an intraperitoneal injection (ip) of 0 (vehicle), 0.5, 1.0, or 2.0 mg/kg body weight FB1 (provided by R. Eppley, US FDA), 1.0 mg/kg body weight HFB1 (positive control) (Voss et al. [2009]), or vehicle (0.9 % physiological saline). These doses corresponded to 0.69, 1.38, and 2.77 μmol FB1/kg body weight and 2.47 μmol/kg body weight HFB1 per day. In order to compare the effects of FB1 and HFB1, dosages will be expressed as molar concentrations and, on this basis, the high dose of FB1 is roughly equivalent to that of the positive control dose of HFB1. Dosing solutions were sterile filtered and administered at a volume rate of 10 ml/kg body weight. The animals were fasted overnight prior to administration of the final dose. The rats were euthanized (CO2 inhalation and exsanguination) 60 to 90 min following the final dose administration and examined by necropsy. The kidney and liver specimens were fixed in 10 % neutral buffered formalin, processed, and microscopically evaluated without knowledge of the animal’s identity or treatment group. Three representative liver and kidney specimens (100 mg each) were also collected, immediately frozen, and stored (−80 °C) until processed, at which time the tissues were thawed and homogenized in distilled/deionized water (1 ml water/100 mg tissue). The homogenates were lyophilized before they were shipped by overnight courier for the analysis of fumonisin metabolites and sphingolipids.
Lyophilized liver and kidney tissues (100 mg wet weight equivalents) were processed for the quantification of FB1, HFB1, NAFB1, NAHFB1, and sphingolipids. Preparation of the tissue samples was performed according to a previously published method (Harrer et al. [2013]). For the quantification of FB1 and HFB1, a d6-labeled derivative of FB1 (FB1-d6) was used as the internal standard. Synthetic derivatives with a heptadecanoic fatty acid (C17:0) residue were used as internal standards for the quantification of N-acyl-fumonisins and ceramides (N-C17:0-FB1, N-C17:0-HFB1, and N-C17:0-ceramide). The sphingoid bases and their phosphate derivatives were quantified using synthetic derivatives with a C17-acyl-backbone: sphingosine (C17:1), sphingosine-1-phosphate (C17:1), sphinganine (C17:0), sphinganine-1-phosphate (C17:0) as internal standards. The standards were dissolved in methanol:chloroform (2:1, v/v) and then mixed with the tissue samples. The samples spiked with internal standard were kept at room temperature for 30 min before being processed further. The internal standard-spiked samples were first extracted with ethyl acetate, isopropanol, and water (60:30:10, v/v/v) and a second time using methanol, chloroform, and water (60:30:10, v/v/v). The extracts were combined, the solvents removed by evaporation, and the dried samples stored at−80 °C till analyzed.
For the analysis, the samples were reconstituted in a mixture of water, methanol, and tetrahydrofurane (60:24:16, v/v/v). The NAFB1 and NAHFB1 derivatives having the following fatty acyl chain lengths were quantified by HPLC-MS/MS: C16:0, C18:0, C20:0, C22:0, C24:0, C26:0. Furthermore, we also quantified the unsaturated derivatives C24:1 and C26:1. The results are given as the sum of all N-acyl derivatives of FB1 or HFB1. […]

[1] = Kidney, treatment FB1 0,5 mg/kg BW ip
[2] = Kidney, treatment FB1 1 mg/kg BW ip
[3] = Kidney, treatment FB1 2 mg/kg BW ip
[4] = Kidney, treatment HFB1 1 mg/kg BW ip
[5] = Liver, treatment FB1 0,5 mg/kg BW ip
[6] = Liver, treatment FB1 1 mg/kg BW ip
[7] = Liver, treatment FB1 2 mg/kg BW ip
[8] = Liver, treatment HFB1 1 mg/kg BW ip

Row | SMILES | N-acyl-derivative in tissue sample, analysis a [1] | N-acyl-derivative in tissue sample, analysis a [2] | N-acyl-derivative in tissue sample, analysis b [2] | N-acyl-derivative in tissue sample, mean [2] | N-acyl-derivative in tissue sample, analysis a [3] | N-acyl-derivative in tissue sample, analysis b [3] | N-acyl-derivative in tissue sample, mean [3] | N-acyl-derivative in tissue sample, analysis a [4] | N-acyl-derivative in tissue sample, analysis b [4] | N-acyl-derivative in tissue sample, analysis a [5] | N-acyl-derivative in tissue sample, analysis b [5] | N-acyl-derivative in tissue sample, mean [5] | N-acyl-derivative in tissue sample, analysis a [6] | N-acyl-derivative in tissue sample, analysis b [6] | N-acyl-derivative in tissue sample, mean [6] | N-acyl-derivative in tissue sample, analysis a [7] | N-acyl-derivative in tissue sample, analysis b [7] | N-acyl-derivative in tissue sample, mean [7] | N-acyl-derivative in tissue sample, analysis a [8] | N-acyl-derivative in tissue sample, analysis b [8] | other results
1 | CCCCCCCCCCCCCCCCCCCCCC(=O)N[C@@H](C)[C@@H](O)C[C@H](O)CCCC[C@@H](O)C[C@H](C)C[C@H](O)[C@H](O)[C@H](C)CCCC [HFB1C22:0] | 0,0 | 0,0 | 0,0 | 0,0 | 0,0 | 0,0 | 0,0 | 1,5 | 4,3 | 0,0 | 0,0 | 0,0 | 0,0 | 0,0 | 0,0 | 0,0 | 0,0 | 0,0 | 61,0 | 45,8 | N-acyl-derivative in tissue sample, analysis b [1]: 0,0; N-acyl-derivative in tissue sample, mean [1]: 0,0; N-acyl-derivative in tissue sample, mean [4]: 2,9; N-acyl-derivative in tissue sample, mean [8]: 53,4
2 | CCCCCCCCCCCCCCCC(=O)N[C@@H](C)[C@@H](O)C[C@H](O)CCCC[C@@H](O)C[C@H](C)C[C@H](O)[C@H](O)[C@H](C)CCCC [HFB1C16:0] | 0,0 | 0,2 | 0,1 | 0,2 | 0,3 | 0,5 | 0,4 | 22,7 | 37,3 | 0,3 | 0,4 | 0,3 | 0,0 | 0,4 | 0,2 | 0,0 | 0,3 | 0,1 | 34,9 | 44,3 | N-acyl-derivative in tissue sample, analysis b [1]: 0,2; N-acyl-derivative in tissue sample, mean [1]: 0,1; N-acyl-derivative in tissue sample, mean [4]: 30,0; N-acyl-derivative in tissue sample, mean [8]: 39,6
3 | CCCCCCCCCCCCCCCCCCCCCCCC(=O)N[C@@H](C)[C@@H](O)C[C@H](O)CCCC[C@@H](O)C[C@H](C)C[C@H](O)[C@H](O)[C@H](C)CCCC [HFB1C24:0] | – | 0,0 | 0,0 | 0,0 | 0,0 | 0,0 | 0,0 | 3,0 | 2,7 | 0,0 | 0,0 | 0,0 | 0,0 | 0,0 | 0,0 | 0,0 | 0,0 | 0,0 | 25,0 | 23,5 | N-acyl-derivative in tissue sample, mean [4]: 2,9; N-acyl-derivative in tissue sample, mean [8]: 24,2
4 | CCCCCCCCCCCCCCCCCC(=O)NC(C)C(O)CC(O)CCCCC(O)CC(C)CC(OC(=O)CC(CC(=O)O)C(=O)O)C(OC(=O)CC(CC(=O)O)C(=O)O)C(C)CCCC (stereo not shown) [FB1C18:0] | 2,5 | 3,8 | 3,1 | 3,4 | 4,0 | 2,8 | 3,4 | 0,0 | 0,0 | 3,1 | 2,4 | 2,8 | 2,0 | 3,0 | 2,5 | 3,0 | 3,9 | 3,5 | 0,0 | 0,0 | N-acyl-derivative in tissue sample, analysis b [1]: 2,9; N-acyl-derivative in tissue sample, mean [1]: 2,7
